Data: patent publication US8337869B2, “Analgesic cream” (priority 2007, dated 2012)

How the values were obtained:
PGE2 = test: Inhibition of PGE2 production by DPG; details: concentrations of DPG contained in Theraflex
LTB4 = test: Inhibition of LTB4 production by DPG; details: concentrations of DPG contained in Theraflex

CC1(C)[C@@H](O[C@H]2O[C@H](C(=O)[O-])[C@@H](O)[C@H](O)[C@H]2O[C@@H]2O[C@H](C(=O)[O-])[C@@H](O)[C@H](O)[C@H]2O)CC[C@]2(C)[C@H]3C(=O)C=C4[C@@H]5C[C@@](C)(C(=O)O)CC[C@]5(C)CC[C@@]4(C)[C@]3(C)CC[C@@H]12.[K+].[K+] [DPG, dipotassium glycyrrhizinate]
inhibition of production of PGE2 (PGE2): greater than 50%
inhibition of production of LTB4 (LTB4): greater than 50%
